What all share (type): biochemical
One experiment addresses T1, PI3Kβ (Homo sapiens, UniProt P42338).
T1 construct: made in house
The experiment is described as follows: TR-FRET enzymatic activity assay, PI3Kβ.

For a further experiment, the target named is T2, PI3Kδ (Homo sapiens, UniProt O00329).
T2 construct: made in house
The experiment is described as follows: TR-FRET enzymatic activity assay, PI3Kδ.

The next experiment has as its target T3, PI3Kγ (Homo sapiens, UniProt P48736).
T3 construct: made in house
The experiment is described as follows: TR-FRET enzymatic activity assay, PI3Kγ. The note with it: read-out: PI3Kγ IC50. The essentials: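 Enzymatic activity against the PI3K isoforms was measured using a time-resolved fluorescence resonance energy transfer (TR-FRET) assay.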
Background: In TR-FRET formats the signal depends on donor and acceptor labels being close together.

The mark [1] stands for this setting: Table 2, TR-FRET, 2x Km ATP, 30 minutes at 25° C.

Molecules are shown by their SMILES. pIC50: −log10 of the molar value. Like-named read-outs stand apart in the source and are kept apart here. Some results are limits rather than exact numbers.

T1 sequence (P42338 whole entry): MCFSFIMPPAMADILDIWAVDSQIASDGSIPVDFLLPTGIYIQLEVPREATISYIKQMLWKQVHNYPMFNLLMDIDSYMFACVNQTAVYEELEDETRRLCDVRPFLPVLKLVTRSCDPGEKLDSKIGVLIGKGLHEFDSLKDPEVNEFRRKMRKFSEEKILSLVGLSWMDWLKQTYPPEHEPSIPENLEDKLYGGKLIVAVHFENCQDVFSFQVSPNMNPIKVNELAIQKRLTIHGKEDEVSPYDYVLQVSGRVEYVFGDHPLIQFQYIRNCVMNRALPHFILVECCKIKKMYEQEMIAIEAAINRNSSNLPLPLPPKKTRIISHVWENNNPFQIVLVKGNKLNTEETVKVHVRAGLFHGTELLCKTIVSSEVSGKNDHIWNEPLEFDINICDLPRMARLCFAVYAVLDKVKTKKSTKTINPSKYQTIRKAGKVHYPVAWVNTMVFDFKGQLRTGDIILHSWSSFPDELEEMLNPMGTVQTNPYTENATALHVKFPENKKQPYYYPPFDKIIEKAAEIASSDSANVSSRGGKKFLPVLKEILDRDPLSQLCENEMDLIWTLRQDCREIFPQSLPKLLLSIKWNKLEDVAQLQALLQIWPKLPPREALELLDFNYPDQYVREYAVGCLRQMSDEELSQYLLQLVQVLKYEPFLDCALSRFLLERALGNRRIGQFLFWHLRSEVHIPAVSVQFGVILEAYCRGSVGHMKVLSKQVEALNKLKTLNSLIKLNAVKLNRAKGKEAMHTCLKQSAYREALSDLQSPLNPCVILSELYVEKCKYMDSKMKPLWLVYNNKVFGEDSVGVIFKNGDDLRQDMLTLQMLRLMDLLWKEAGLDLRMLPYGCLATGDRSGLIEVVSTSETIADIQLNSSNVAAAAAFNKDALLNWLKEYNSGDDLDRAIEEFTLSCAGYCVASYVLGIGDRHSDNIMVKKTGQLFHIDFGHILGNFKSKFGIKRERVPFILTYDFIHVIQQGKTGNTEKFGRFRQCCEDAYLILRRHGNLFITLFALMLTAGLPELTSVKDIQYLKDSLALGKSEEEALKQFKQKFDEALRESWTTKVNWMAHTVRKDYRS
T1 sequence (P27986 whole entry partner): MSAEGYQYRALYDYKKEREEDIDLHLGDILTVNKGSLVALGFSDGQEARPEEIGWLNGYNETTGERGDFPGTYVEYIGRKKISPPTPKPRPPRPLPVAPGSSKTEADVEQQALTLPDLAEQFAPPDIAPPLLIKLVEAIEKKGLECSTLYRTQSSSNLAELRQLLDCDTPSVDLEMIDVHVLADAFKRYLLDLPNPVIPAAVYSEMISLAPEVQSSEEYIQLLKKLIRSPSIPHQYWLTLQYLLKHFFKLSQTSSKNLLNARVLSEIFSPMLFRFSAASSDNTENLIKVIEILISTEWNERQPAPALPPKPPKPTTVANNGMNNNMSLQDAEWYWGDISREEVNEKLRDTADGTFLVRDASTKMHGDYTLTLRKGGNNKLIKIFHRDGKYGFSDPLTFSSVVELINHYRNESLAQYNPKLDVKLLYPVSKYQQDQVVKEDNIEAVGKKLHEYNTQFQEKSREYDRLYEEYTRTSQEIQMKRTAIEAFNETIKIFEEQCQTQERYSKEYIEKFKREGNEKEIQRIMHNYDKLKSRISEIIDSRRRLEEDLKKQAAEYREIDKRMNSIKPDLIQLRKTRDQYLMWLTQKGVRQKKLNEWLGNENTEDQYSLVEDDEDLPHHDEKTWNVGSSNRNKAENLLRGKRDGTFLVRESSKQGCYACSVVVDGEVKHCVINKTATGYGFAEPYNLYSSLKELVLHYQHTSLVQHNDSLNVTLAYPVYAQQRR
T3 sequence (P48736 whole entry): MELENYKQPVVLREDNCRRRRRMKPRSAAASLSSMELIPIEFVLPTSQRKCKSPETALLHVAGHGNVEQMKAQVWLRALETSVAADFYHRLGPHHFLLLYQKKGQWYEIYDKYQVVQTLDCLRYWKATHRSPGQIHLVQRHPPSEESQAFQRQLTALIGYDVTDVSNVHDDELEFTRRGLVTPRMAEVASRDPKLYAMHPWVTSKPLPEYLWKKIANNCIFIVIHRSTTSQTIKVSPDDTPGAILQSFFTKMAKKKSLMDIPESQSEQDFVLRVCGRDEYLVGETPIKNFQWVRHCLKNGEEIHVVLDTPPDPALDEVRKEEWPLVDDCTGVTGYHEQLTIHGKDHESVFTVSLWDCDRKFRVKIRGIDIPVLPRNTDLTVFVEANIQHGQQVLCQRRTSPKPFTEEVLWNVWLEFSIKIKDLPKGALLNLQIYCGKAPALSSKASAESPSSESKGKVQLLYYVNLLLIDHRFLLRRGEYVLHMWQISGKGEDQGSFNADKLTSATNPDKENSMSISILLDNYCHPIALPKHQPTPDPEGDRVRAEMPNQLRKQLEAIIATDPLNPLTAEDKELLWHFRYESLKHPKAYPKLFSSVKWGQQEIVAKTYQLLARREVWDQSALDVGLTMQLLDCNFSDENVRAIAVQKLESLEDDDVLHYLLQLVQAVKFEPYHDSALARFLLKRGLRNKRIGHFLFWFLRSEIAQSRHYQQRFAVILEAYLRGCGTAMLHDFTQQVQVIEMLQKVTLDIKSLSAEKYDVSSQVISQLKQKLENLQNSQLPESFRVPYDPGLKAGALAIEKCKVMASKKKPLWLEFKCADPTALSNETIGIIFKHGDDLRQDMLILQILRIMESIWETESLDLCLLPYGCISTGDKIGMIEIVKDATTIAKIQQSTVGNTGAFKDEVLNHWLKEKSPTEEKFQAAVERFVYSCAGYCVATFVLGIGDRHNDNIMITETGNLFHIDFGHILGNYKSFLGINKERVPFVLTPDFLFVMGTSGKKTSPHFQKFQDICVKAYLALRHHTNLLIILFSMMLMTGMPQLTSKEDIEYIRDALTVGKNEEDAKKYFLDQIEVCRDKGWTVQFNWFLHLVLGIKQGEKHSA
T2 sequence (O00329 whole entry): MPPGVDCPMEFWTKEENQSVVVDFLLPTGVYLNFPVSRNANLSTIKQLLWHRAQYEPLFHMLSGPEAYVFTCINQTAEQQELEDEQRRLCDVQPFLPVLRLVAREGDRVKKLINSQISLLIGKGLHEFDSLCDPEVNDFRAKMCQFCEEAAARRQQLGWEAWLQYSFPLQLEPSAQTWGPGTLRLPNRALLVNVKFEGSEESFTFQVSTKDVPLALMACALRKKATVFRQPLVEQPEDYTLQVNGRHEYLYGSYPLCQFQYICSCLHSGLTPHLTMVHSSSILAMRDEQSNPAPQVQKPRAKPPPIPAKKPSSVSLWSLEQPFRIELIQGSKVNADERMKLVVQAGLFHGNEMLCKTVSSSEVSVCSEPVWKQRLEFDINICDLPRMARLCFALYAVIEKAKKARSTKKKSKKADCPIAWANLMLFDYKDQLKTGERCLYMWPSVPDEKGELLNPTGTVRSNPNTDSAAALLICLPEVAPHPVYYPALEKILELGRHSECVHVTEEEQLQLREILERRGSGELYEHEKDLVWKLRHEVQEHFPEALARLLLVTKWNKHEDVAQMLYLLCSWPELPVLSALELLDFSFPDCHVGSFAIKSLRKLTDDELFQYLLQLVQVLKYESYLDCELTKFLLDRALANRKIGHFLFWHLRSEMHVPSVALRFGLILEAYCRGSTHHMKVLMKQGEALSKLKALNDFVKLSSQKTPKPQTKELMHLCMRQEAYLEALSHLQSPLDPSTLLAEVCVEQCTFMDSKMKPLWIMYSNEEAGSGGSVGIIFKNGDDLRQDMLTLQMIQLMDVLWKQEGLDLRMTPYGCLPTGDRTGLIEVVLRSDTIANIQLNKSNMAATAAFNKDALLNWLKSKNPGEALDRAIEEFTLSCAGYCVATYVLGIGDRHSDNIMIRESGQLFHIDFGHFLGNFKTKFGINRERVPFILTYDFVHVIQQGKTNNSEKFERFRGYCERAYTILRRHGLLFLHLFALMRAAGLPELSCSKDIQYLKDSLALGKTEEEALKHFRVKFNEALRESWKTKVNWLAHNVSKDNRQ
T2 sequence (P27986 whole entry partner): as the sequence (P27986 whole entry partner) above

The pIC50 is the IC50 on a negative log10 scale, so that one unit is a factor of ten. On to `N#Cc1c(N)nc(N)nc1N[C@H](c1nc2c(Cl)cccc2c(=O)n1-c1cn[nH]c1)C1CC1` [Compound 29, (S)-2,4-diamino-6-(((8-chloro-4-oxo-3-(1H-pyrazol-4-yl)-3,4-dihydroquinazolin-2-yl)(cyclopropyl)methyl)amino)pyrimidine-5-carbonitrile], for which the pIC50 at PI3Kβ (setting [1]) was 8.52; against PI3Kδ (setting [1]), 8.22; on PI3Kγ (setting [1]), 6.36.
For the compound `C[C@H](Nc1nc(N)nc(N)c1Cl)c1nc2ccc(F)c(Cl)c2c(=O)n1-c1cc[nH]n1` [Compound 259, (S)-5-chloro-2-(1-((2,6-diamino-5-chloropyrimidin-4-yl)amino)ethyl)-6-fluoro-3-(1H-pyrazol-3-yl)quinazolin-4(3H)-one], the pIC50 against PI3Kβ (Table 2a, same assay) was 7.68; at PI3Kδ (Table 2a, same assay), 8.22; on PI3Kγ (Table 2a, same assay), 5.46.
For `Nc1nc(N)c(Cl)c(N[C@H](c2nc3cccc(C(F)F)c3c(=O)n2-c2cc[nH]n2)C2CCC2)n1` [Compound 132, (S)-2-(cyclobutyl((2,6-diamino-5-chloropyrimidin-4-yl)amino)methyl)-5-(difluoromethyl)-3-(1H-pyrazol-3-yl)quinazolin-4(3H)-one], in that order: 7.12, 7.38 and less than 5.00.
In the same order, the values of `C[C@H](Nc1nc(N)nc(N)c1C#N)c1nc2ccc(F)c(Cl)c2c(=O)n1-c1cn[nH]c1` [Compound 264, (S)-2,4-diamino-6-((1-(5-chloro-6-fluoro-4-oxo-3-(1H-pyrazol-4-yl)-3,4-dihydroquinazolin-2-yl)ethyl)amino)pyrimidine-5-carbonitrile] are 8.10, 8.70 and 7.15.
Consider `C[C@H](Nc1nc(N)nc(N)c1C#N)c1nc2c(Cl)cc(F)cc2c(=O)n1-c1cn[nH]c1` [Compound 266, (S)-2,4-diamino-6-((1-(8-chloro-6-fluoro-4-oxo-3-(1H-pyrazol-4-yl)-3,4-dihydroquinazolin-2-yl)ethyl)amino)pyrimidine-5-carbonitrile], for which the pIC50 is 8.40 against PI3Kβ (Table 2a, same assay); 9.00 against PI3Kδ (Table 2a, same assay); 7.08 at PI3Kγ (Table 2a, same assay).
With `C[C@H](Nc1nc(N)nc2[nH]nc(Br)c12)c1nc2cccc(Cl)c2c(=O)n1-c1cc[nH]n1` [Compound 92, (S)-2-(1-((6-amino-3-bromo-1H-pyrazolo[3,4-d]pyrimidin-4-yl)amino)ethyl)-5-chloro-3-(1H-pyrazol-3-yl)quinazolin-4(3H)-one], the pIC50 was 8.00 against PI3Kβ (setting [1]), 8.22 at PI3Kδ (setting [1]) and 5.42 on PI3Kγ (setting [1]).
In the case of `C[C@H](Nc1nc(N)nc(N)c1C#N)c1nc2cccc(Cl)c2c(=O)n1-c1c[nH]cn1` [Compound 288, (S)-2,4-diamino-6-((1-(5-chloro-3-(1H-imidazol-4-yl)-4-oxo-3,4-dihydroquinazolin-2-yl)ethyl)amino)pyrimidine-5-carbonitrile], the pIC50 on PI3Kβ (Table 2a, same assay) is 8.70; against PI3Kδ (Table 2a, same assay), 9.15; on PI3Kγ (Table 2a, same assay), 6.72.
For `C[C@H](Nc1nc(N)nc(N)c1Cl)c1nc2ccccc2c(=O)n1-c1cc[nH]n1` [Compound 275, (S)-2-(1-((2,6-diamino-5-chloropyrimidin-4-yl)amino)ethyl)-3-(1H-pyrazol-3-yl)quinazolin-4(3H)-one], in that order: 7.34, 7.40 and less than 5.00.
In the same order, the values of `Cc1c[nH]nc1-n1c([C@@H](Nc2nc(N)nc(Cl)c2C#N)C2CC2)nc2cccc(Cl)c2c1=O` [Compound 243, (S)-2-amino-4-chloro-6-(((5-chloro-3-(4-methyl-1H-pyrazol-3-yl)-4-oxo-3,4-dihydroquinazolin-2-yl)(cyclopropyl)methyl)amino)pyrimidine-5-carbonitrile] are 6.70, 7.47 and 5.51.

Source of the values: patent US10308639B2, “Phosphatidylinositol 3-kinase inhibitors” (Gilead Sciences, Inc., priority 2014, dated 2019).
